These are literature values, as cited in US20240108740A1, “THERAPEUTIC COMPOSITIONS INCLUDING SPN10 AND USES THEREOF” (Stealth BioTherapeutics Inc., priority 2022, published 2024).

The test system of data set [1] is several mammalian cell types. Particulars: energy-independent manner; Zhao et al. 2003; cited from earlier work.
The subject of the next data set is cell stress recovery. Particulars: Mitchell et al., bioRxiv; cited from earlier work.

Non-standard residues stand in square brackets, D forms with d.

H-2′,6′-Dmt-D-Arg-Phe-Lys-NH2: the “penetration of the plasma membrane” value in data set [1] is listed as “readily penetrates the plasma membrane”. Regarding “H-D-Arg-Tyr-Lys-Phe-NH2 (H-[dR]YKF-NH2; SMILES N=C(N)NCCC[C@@H](N)C(=O)N[C@@H](Cc1ccc(O)cc1)C(=O)N[C@@H](CCCCN)C(=O)N[C@@H](Cc1ccccc1)C(N)=O) [SPN4, reference compound]”, the “performance compared with SS-31 (cell culture assays, structure-activity analysis)” value with cell stress recovery is on record as “consistently outperformed SS-31”.

As for “H-F[dR]FK-NH2 [SS-20, reference compound]”, in the data set with cell stress recovery, the “performance compared with SS-31 (cell culture assays, structure-activity analysis)” value is “consistently outperformed SS-31”.
